# Test results published in patent publication EP0429333B1, “Process for producing oxazopyrroloquinolines, novel oxazopyrroloquinolines, and use of oxazopyrroloquinolines” (priority 1989, dated 1991).
# Experiments:
# peritoneal macrophage = assay: Test on macrophage-chemotaxis after intraperitoneal administration; format: in vivo, C3H/He mice; details: for (2) Chemotaxis factor was present: 50 % zymosan treated serum, no administration 68; for (2) - (1) Chemotaxied macrophage: no administration 58; for Relative activity of group (%): no administration = 100; for (1) Chemotaxis factor was not present: total number of chemotaxied macrophages at 3 points, no administration 10
# Protocol: Thirtytwo C3H/He mice (male, 7 weeks old, average body weight 20 g, supplied by Japan Charles River Co.) were divided into 4 groups (A - D) of 8 mice each.
# A solution of OPQ in physiological saline of pH 7.0 was intraperitoneally administered to each mouse 7 times, namely, on the 1st day, 2nd day, 3rd day, 4th day, 5th day, 6th day and 7th day. Dosage for one administration per one mouse was as follows: That is, 0.2 ml of the solution containing 0.2 mg/ml of OPQ for group B, 0.2 ml of the solution containing 0.5 mg/ml of OPQ for group C, 0.2 ml of the solution containing 1.0 mg/ml of OPQ for group D and 0.2 ml of physiological saline for group A.
# On the 8th day from starting of the experiment, the mice were anesthetized with ether and blood was drawn from carotid artery and 5 ml of cold Hanks solution was intraperitoneally injected and exudate cells for the abdominal cavity were collected. Exudate cells for the abdominal cavity of respective groups were gathered, washed three times with cold Hanks solution and suspended in RPMI medium at 5 x 10^5 cells/ml and macrophage-chemotaxis was measured. 50 % zymosan treated serum was used as chemotaxis factor and examination was conducted at three points for each sample. Number of chemotaxied macrophage was measured on microscope and 13 visual fields was examined for one point and the results are shown in Table 2. The value in the table is a total number of chemotaxied macrophages at 3 points for each sample. Preparation of Hanks solution and RPMI medium will be explained below.
# Test on macrophage-chemotaxis was conducted in the same manner as in Example 36 except that hydroxymethyl OPQ was intraperitoneally administered to each mouce 3 times of the 1st day, the 2nd day and the 3rd day in the following dosage for one administration per one mouse: 0.2 ml of hydroxymethyl OPQ solution containing 0.5 mg/ml of hydroxymethyl OPQ for group B, 0.2 ml of the solution containing 1.0 mg/ml of hydroxymethyl OPQ for group C, and 0.2 ml of the solution containing 1.5 mg/ml of hydroxymethyl OPQ for group D and exudate cells for the abdominal cavity were collected on the 4th day from starting of experiment.
# (§1) In Examples 36 - 40, macrophage activity was examined according to chemotaxis of peritoneal macrophage (literature 1) and activity of T cell and that of B cell were examined according to blast transformation reaction using concanavalin A and lipopolysaccharide, (LPS) as mitogen (literature 2). Literature 1: "Function of Macrophage and Method of Measurement of Function", pages 61-65 1985), edited by Educational Committee of Japan Bacteriological Society and published from Saikon Shuppan Co.) Literature 2: "New Method of Searching of Function of Lymphocytes", pages 350-355 (1987) edited by Junichi Yada and Michio Fujiwara and published from Chugai Igaku Co.
# B cell = assay: Test on B cell blast transformation reaction, spleen cells of treated mice; format: in vivo, C3H/He mice; details: for Relative activity (%): no administration = 100
# Protocol: Cells of spleen of C3H/He mice to which OPQ was administered were obtained in the same manner as in Example 38.
# Further, intake amount of ^3H-thymidine was examined in the same manner as in Example 38 except that 25 µg/ml or 50 µg/ml of lipopolysaccharide (LPS WE E. coli 0111, Difco) was used in place of the concanavalin A as mitogen. Values in the table are average values of intake amount (cpm) of ^3H in culture under four same conditions.
# as §1
# T cell = assay: Test on T cell blast transformation reaction (1), spleen cells of treated mice; format: in vivo, C3H/He mouse; details: for Relative activity (%): no administration = 100
# Protocol: In the same manner as in Example 36, OPQ was administered to C3H/He mouse and the mouse was bred. Dosage of OPQ for one administration per one mouse was 0.2 ml of OPQ solution containing 0.5 mg/ml of OPQ for group B and 0.2 ml of the solution containing 1.0 mg/ml of OPQ for group C and 0.2 ml of physiological saline was administered for group A.
# On the 8th day from starting of experiment, mouse was anesthetized with ether and blood was drawn from carotid artery and spleen was aseptically extracted.
# Cells of the spleen of respective groups were broken up and these cells were floated on tris-NH4Cl hemolytic solution warmed to 37°C and left for 5 minutes at 37°C to hemolyze erythrocytes, followed by washing twice with cold Hanks solution. The cells were suspended in RPMI medium at 4 x 10^6 cells/ml and the suspension was put in a flat bottom microplate of 96 holes. Culture was carried out in the air containing 5 % of CO2 at 37°C using concanavalin A (Type IV Sigma C2010) in an amount of 0.5 µg/ml or 2 µg/ml as mitogen. After 63 hours from starting of culture, ^3H-thymidine was added in an amount of 2.5 µci/ml and culturing was carried out for further 9 hours. Thereafter, cells were gathered on a glass fiber filter by cell harvester and ^3H on this filter was measured by a liquid scintillation counter.
# As control, same four culturings were conducted under the same conditions without adding concanavalin A.
# Values in the table are average values of intake amount (cpm) of ^3H in culture under four same conditions.
# as §1
# [1] = 2 mg/kg mouse x 7 days intraperitoneally
# [2] = 5 mg/kg mouse x 7 days intraperitoneally
# [3] = 10 mg/kg mouse x 7 days intraperitoneally
structure (smiles),measurement,setting,value
"O=C(O)c1cc(C(=O)O)c2c(n1)c1ncoc1c1cc(C(=O)O)[nH]c12 [OPQ, oxazopyrroloquinoline]",(2) Chemotaxis factor was present,peritoneal macrophage; [1],107
same,(2) - (1) Chemotaxied macrophage,peritoneal macrophage; [1],96
same,Relative activity of group (%),peritoneal macrophage; [1],166%
same,(1) Chemotaxis factor was not present,peritoneal macrophage; [1],11
same,(2) Chemotaxis factor was present,peritoneal macrophage; [2],96
same,(2) - (1) Chemotaxied macrophage,peritoneal macrophage; [2],87
same,Relative activity of group (%),peritoneal macrophage; [2],150%
same,(1) Chemotaxis factor was not present,peritoneal macrophage; [2],9
same,(2) Chemotaxis factor was present,peritoneal macrophage; [3],180
same,(2) - (1) Chemotaxied macrophage,peritoneal macrophage; [3],173
same,Relative activity of group (%),peritoneal macrophage; [3],298%
same,(1) Chemotaxis factor was not present,peritoneal macrophage; [3],7
same,Relative activity (%),"B cell; 5mg/kg mouse x 7 days, Lipopolysaccharide 25 µg/ml",108%
same,Relative activity (%),"B cell; 5mg/kg mouse x 7 days, Lipopolysaccharide 50 µg/ml",109%
same,intake amount (cpm) of ^3H,"B cell; 5mg/kg mouse x 7 days, Lipopolysaccharide (LPS) 0 µg/ml, no administration 6562",9303 cpm
same,intake amount (cpm) of ^3H,"B cell; 5mg/kg mouse x 7 days, Lipopolysaccharide (LPS) 25 µg/ml, no administration 34557",37434 cpm
same,intake amount (cpm) of ^3H,"B cell; 5mg/kg mouse x 7 days, Lipopolysaccharide (LPS) 50 µg/ml, no administration 42247",46193 cpm
same,Relative activity (%),"B cell; 10mg/kg mouse x 7 days, Lipopolysaccharide 25 µg/ml",121%
same,Relative activity (%),"B cell; 10mg/kg mouse x 7 days, Lipopolysaccharide 50 µg/ml",126%
same,intake amount (cpm) of ^3H,"B cell; 10mg/kg mouse x 7 days, Lipopolysaccharide (LPS) 0 µg/ml, no administration 6562",9301 cpm
same,intake amount (cpm) of ^3H,"B cell; 10mg/kg mouse x 7 days, Lipopolysaccharide (LPS) 25 µg/ml, no administration 34557",41876 cpm
same,intake amount (cpm) of ^3H,"B cell; 10mg/kg mouse x 7 days, Lipopolysaccharide (LPS) 50 µg/ml, no administration 42247",53267 cpm
same,Relative activity (%),"T cell; 5 mg/kg mouse x 7 days, Concanavalin A 0.5µg/ml",137%
same,Relative activity (%),"T cell; 5 mg/kg mouse x 7 days, Concanavalin A 2.0µg/ml",146%
same,intake amount (cpm) of ^3H,"T cell; 5 mg/kg mouse x 7 days, concanavalin 0 µg/ml, no administration 7312",10796 cpm
same,intake amount (cpm) of ^3H,"T cell; 5 mg/kg mouse x 7 days, concanavalin 0.5 µg/ml, no administration 11637",15942 cpm
same,intake amount (cpm) of ^3H,"T cell; 5 mg/kg mouse x 7 days, concanavalin 2 µg/ml, no administration 96188",140376 cpm
same,Relative activity (%),"T cell; 10 mg/kg mouse x 7 days, Concanavalin A 0.5µg/ml",189%
same,Relative activity (%),"T cell; 10 mg/kg mouse x 7 days, Concanavalin A 2.0µg/ml",150%
same,intake amount (cpm) of ^3H,"T cell; 10 mg/kg mouse x 7 days, concanavalin 0 µg/ml, no administration 7312",9124 cpm
same,intake amount (cpm) of ^3H,"T cell; 10 mg/kg mouse x 7 days, concanavalin 0.5 µg/ml, no administration 11637",21965 cpm
same,intake amount (cpm) of ^3H,"T cell; 10 mg/kg mouse x 7 days, concanavalin 2 µg/ml, no administration 96188",144171 cpm
